Data published in the kinase profiling compilation of Christmann-Franck et al. (2016).

Columns and labels:
AURKB (human) = AURKB (human) (UniProt Q96GD4)
BTK (human) = BTK (human) (UniProt Q06187)
CDK2 CCNA2 (human) = CDK2 CCNA2 (human) (UniProt P20248+P24941)
CHEK1 (human) = CHEK1 (human) (UniProt O14757)
CHEK2 (human) = CHEK2 (human) (UniProt O96017)
CaMK1 (human) = CaMK1 (human) (UniProt Q14012)
DYRK2 (human) = DYRK2 (human) (UniProt Q92630)
GSK3B (human) = GSK3B (human) (UniProt P49841)
HIPK2 (human) = HIPK2 (human) (UniProt Q9H2X6)
IGF1R (human) = IGF1R (human) (UniProt P08069)
IKBKB (human) = IKBKB (human) (UniProt O14920)
INSRR (human) = INSRR (human) (UniProt P14616)
MAPK13 (human) = MAPK13 (human) (UniProt O15264)
MAPK3 (human) = MAPK3 (human) (UniProt P27361)
MAPKAPK5 (human) = MAPKAPK5 (human) (UniProt Q8IW41)
MELK (human) = MELK (human) (UniProt Q14680)
MKNK2 (human) = MKNK2 (human) (UniProt Q9HBH9)
MST4 (human) = MST4 (human) (UniProt Q9P289)
NEK2 (human) = NEK2 (human) (UniProt P51955)
NEK6 (human) = NEK6 (human) (UniProt Q9HC98)
PAK7 (human) = PAK7 (human) (UniProt Q9P286)
PIM2 (human) = PIM2 (human) (UniProt Q9P1W9)
PRKAA1 or PRKAA2 (rat) = conditions: accession and sequence are those of the human protein
PRKACA (human) = PRKACA (human) (UniProt P17612)
RPS6KA3 KD1 KD2 (human) = RPS6KA3 KD1 KD2 (human) (UniProt P51812)
[1] = system: SGK1 (human), O00141 [S422D]
SRC (human) = SRC (human) (UniProt P12931)
SYK (human) = SYK (human) (UniProt P43405)
TBK1 (human) = TBK1 (human) (UniProt Q9UHD2)
PI4KA (human) = PI4KA (human) (UniProt P42356)
PI4KB (human) = PI4KB (human) (UniProt Q9UBF8)
PIK3C2A (human) = PIK3C2A (human) (UniProt O00443)
PIK3C2B (human) = PIK3C2B (human) (UniProt O00750)
PIK3C3 (human) = PIK3C3 (human) (UniProt Q8NEB9)

Chain of INSRR (human) (P14616 whole entry, looked up): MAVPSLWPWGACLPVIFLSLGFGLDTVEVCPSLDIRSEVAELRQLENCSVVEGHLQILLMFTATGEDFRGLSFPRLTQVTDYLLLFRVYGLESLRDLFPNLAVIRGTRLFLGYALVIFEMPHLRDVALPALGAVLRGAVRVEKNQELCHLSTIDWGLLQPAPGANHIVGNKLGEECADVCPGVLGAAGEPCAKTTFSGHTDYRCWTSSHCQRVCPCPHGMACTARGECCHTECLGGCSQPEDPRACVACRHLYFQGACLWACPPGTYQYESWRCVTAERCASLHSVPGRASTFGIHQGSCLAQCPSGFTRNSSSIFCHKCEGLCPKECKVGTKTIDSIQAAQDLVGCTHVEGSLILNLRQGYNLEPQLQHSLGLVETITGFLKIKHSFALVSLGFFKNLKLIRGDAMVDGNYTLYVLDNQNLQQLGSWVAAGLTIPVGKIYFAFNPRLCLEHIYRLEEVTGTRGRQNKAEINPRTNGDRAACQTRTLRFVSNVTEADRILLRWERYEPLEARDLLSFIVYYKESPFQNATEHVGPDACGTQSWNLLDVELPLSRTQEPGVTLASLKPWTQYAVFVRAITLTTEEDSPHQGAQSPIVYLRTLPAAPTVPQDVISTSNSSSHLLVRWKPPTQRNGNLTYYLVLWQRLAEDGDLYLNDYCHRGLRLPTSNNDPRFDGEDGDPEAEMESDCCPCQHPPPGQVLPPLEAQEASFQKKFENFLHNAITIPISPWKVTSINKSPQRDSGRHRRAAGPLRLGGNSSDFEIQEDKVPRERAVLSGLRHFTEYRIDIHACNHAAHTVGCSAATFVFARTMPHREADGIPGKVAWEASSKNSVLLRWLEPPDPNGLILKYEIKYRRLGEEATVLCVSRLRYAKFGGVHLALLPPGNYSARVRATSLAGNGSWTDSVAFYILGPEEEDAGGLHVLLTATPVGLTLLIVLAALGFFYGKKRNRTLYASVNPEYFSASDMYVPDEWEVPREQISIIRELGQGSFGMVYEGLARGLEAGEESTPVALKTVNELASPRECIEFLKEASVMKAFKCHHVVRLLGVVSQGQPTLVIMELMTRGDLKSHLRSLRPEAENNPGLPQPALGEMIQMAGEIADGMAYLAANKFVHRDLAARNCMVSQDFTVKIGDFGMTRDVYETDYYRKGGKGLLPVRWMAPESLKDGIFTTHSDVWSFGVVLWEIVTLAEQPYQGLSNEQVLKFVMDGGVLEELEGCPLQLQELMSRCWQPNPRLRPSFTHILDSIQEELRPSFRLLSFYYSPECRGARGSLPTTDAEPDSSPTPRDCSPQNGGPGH
Chain of AURKB (human) (Q96GD4 whole entry, looked up): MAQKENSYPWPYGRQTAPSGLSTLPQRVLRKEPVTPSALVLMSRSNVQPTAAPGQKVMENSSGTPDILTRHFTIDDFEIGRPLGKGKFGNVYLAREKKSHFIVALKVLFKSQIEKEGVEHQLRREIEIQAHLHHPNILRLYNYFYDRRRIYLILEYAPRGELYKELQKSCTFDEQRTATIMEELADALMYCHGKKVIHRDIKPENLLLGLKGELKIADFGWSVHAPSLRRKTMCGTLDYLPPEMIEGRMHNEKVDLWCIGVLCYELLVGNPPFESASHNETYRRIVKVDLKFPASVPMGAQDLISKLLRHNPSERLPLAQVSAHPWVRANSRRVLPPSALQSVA
Chain of MST4 (human) (Q9P289 whole entry, looked up): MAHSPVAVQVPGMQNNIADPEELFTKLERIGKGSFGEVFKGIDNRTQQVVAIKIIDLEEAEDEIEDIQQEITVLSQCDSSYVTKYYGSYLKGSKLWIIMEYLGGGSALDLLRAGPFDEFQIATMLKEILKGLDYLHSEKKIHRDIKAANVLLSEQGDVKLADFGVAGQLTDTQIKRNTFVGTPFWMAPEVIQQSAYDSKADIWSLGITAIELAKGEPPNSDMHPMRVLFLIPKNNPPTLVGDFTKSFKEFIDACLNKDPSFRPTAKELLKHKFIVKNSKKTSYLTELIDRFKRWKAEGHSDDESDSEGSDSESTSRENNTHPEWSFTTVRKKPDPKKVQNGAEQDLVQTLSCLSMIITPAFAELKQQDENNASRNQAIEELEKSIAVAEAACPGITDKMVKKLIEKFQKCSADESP
Chain of NEK6 (human) (Q9HC98 whole entry, looked up): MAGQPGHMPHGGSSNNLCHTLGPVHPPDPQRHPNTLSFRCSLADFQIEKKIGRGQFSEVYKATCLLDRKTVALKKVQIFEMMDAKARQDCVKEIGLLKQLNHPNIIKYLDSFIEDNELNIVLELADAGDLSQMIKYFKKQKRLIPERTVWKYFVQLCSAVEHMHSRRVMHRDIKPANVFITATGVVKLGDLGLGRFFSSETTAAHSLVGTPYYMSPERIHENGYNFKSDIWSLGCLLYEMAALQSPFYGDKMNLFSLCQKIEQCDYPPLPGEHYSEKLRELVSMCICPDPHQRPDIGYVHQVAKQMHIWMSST
Chain of SRC (human) (P12931 whole entry, looked up): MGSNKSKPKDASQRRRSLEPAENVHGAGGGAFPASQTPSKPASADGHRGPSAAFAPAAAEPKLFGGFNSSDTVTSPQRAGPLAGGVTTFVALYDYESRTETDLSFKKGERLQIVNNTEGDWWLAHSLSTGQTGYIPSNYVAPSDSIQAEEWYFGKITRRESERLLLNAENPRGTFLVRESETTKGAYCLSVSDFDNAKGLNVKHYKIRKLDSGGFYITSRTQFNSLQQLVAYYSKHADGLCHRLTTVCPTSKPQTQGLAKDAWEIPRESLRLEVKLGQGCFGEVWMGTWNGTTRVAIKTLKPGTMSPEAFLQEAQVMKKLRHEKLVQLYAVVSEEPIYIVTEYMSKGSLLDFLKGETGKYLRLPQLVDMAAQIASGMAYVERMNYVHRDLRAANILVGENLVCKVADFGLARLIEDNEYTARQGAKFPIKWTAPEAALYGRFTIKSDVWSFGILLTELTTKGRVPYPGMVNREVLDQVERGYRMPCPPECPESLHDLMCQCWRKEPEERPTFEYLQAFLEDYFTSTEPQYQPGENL
Chain of PAK7 (human) (Q9P286 whole entry, looked up): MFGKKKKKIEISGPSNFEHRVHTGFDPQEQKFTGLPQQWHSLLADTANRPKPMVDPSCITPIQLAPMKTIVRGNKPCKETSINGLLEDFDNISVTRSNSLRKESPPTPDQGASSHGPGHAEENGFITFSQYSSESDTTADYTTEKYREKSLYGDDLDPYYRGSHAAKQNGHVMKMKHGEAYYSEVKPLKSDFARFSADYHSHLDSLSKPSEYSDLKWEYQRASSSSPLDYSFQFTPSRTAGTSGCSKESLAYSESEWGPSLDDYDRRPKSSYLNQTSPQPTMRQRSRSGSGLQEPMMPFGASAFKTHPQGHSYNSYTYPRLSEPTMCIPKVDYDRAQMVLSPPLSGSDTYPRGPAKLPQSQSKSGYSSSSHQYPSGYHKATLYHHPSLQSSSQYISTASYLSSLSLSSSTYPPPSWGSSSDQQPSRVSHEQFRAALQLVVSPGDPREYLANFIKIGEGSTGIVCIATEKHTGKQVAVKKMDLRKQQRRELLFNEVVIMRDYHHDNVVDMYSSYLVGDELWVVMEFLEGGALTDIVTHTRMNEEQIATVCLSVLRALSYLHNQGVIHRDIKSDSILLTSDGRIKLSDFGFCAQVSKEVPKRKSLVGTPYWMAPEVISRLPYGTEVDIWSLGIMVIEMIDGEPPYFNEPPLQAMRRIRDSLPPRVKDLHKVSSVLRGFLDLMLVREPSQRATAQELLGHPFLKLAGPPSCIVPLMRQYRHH
Chain of NEK2 (human) (P51955 whole entry, looked up): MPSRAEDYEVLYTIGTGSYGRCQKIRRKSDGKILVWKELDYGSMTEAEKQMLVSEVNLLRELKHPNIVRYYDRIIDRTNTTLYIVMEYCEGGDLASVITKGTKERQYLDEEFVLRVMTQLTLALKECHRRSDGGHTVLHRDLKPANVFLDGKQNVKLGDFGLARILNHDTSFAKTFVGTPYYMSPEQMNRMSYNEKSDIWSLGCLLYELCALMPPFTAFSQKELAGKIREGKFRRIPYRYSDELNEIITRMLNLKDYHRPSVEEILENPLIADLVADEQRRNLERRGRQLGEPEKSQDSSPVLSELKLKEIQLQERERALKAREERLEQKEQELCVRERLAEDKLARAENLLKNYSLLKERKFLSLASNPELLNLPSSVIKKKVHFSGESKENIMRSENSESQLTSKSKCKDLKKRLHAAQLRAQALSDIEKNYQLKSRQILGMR
Chain of IKBKB (human) (O14920 whole entry, looked up): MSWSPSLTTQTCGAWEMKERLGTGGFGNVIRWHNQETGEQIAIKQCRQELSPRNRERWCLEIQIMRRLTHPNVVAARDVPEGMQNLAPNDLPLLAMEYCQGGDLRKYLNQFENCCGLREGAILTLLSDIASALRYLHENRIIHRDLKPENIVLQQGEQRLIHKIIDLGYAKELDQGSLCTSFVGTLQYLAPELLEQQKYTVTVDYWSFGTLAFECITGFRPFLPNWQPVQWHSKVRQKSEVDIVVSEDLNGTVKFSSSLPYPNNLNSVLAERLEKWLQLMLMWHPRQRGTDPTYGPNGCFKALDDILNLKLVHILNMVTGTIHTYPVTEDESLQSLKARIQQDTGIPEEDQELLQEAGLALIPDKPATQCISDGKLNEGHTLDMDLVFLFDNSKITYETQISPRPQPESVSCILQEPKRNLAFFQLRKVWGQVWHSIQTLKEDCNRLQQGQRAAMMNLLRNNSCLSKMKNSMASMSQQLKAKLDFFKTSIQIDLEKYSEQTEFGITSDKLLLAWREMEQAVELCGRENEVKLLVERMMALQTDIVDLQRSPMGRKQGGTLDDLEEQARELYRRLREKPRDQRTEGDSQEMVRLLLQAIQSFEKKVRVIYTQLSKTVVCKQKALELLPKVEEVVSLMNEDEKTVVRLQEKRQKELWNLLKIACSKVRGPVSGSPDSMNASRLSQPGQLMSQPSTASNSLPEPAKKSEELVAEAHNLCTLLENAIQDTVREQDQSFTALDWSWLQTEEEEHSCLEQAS

For `COC(=O)Nc1ccc(-c2nc(N3CCOCC3)c3cnn(C4CCN(C(=O)OC)CC4)c3n2)cc1`, the per cent of control (AURKB (human); compound 1.0 µM) was 91%, the per cent of control (AURKB (human); compound 10.0 µM) was 100% and the per cent of control (BTK (human); compound 1.0 µM) was 116%. It also gave a per cent of control (BTK (human); compound 10.0 µM) of 99%, a per cent of control (CDK2 CCNA2 (human); compound 1.0 µM) of 111% and a per cent of control (CDK2 CCNA2 (human); compound 10.0 µM) of 104%. For the same molecule, the per cent of control (CHEK1 (human); compound 1.0 µM) was 96%, the per cent of control (CHEK1 (human); compound 10.0 µM) was 92% and the per cent of control (CHEK2 (human); compound 1.0 µM) was 86%. It also gave a per cent of control (CHEK2 (human); compound 10.0 µM) of 88%, a per cent of control (CaMK1 (human); compound 1.0 µM) of 97% and a per cent of control (CaMK1 (human); compound 10.0 µM) of 102%. For the same molecule, the per cent of control (DYRK2 (human); compound 1.0 µM) was 92%, the per cent of control (DYRK2 (human); compound 10.0 µM) was 96% and the per cent of control (GSK3B (human); compound 1.0 µM) was 86%. It also gave a per cent of control (GSK3B (human); compound 10.0 µM) of 93%, a per cent of control (HIPK2 (human); compound 1.0 µM) of 95% and a per cent of control (HIPK2 (human); compound 10.0 µM) of 94%. For the same molecule, the per cent of control (IGF1R (human); compound 1.0 µM) was 108%, the per cent of control (IGF1R (human); compound 10.0 µM) was 101% and the per cent of control (IKBKB (human); compound 1.0 µM) was 97%. The per cent of control (IKBKB (human); compound 10.0 µM) was 100%, the per cent of control (INSRR (human); compound 1.0 µM) was 88% and the per cent of control (INSRR (human); compound 10.0 µM) was 99%. The per cent of control (MAPK13 (human); compound 1.0 µM) was 14%, the per cent of control (MAPK13 (human); compound 10.0 µM) was 10% and the per cent of control (MAPK3 (human); compound 1.0 µM) was 90%. The per cent of control (MAPK3 (human); compound 10.0 µM) was 97%, the per cent of control (MAPKAPK5 (human); compound 1.0 µM) was 98% and the per cent of control (MAPKAPK5 (human); compound 10.0 µM) was 74%. The per cent of control (MELK (human); compound 1.0 µM) was 87%, the per cent of control (MELK (human); compound 10.0 µM) was 75% and the per cent of control (MKNK2 (human); compound 1.0 µM) was 115%. The per cent of control (MKNK2 (human); compound 10.0 µM) was 93%, the per cent of control (MST4 (human); compound 1.0 µM) was 88% and the per cent of control (MST4 (human); compound 10.0 µM) was 82%. The per cent of control (NEK2 (human); compound 1.0 µM) was 93%, the per cent of control (NEK2 (human); compound 10.0 µM) was 101% and the per cent of control (NEK6 (human); compound 1.0 µM) was 96%. The per cent of control (NEK6 (human); compound 10.0 µM) was 87%, the per cent of control (PAK7 (human); compound 1.0 µM) was 97% and the per cent of control (PAK7 (human); compound 10.0 µM) was 87%. It also gave a per cent of control (PIM2 (human); compound 1.0 µM) of 81%, a per cent of control (PIM2 (human); compound 10.0 µM) of 80% and a per cent of control (PRKAA1 or PRKAA2 (rat); compound 1.0 µM) of 78%. The per cent of control (PRKAA1 or PRKAA2 (rat); compound 10.0 µM) was 82%, the per cent of control (PRKACA (human); compound 1.0 µM) was 103% and the per cent of control (PRKACA (human); compound 10.0 µM) was 100%. The per cent of control (RPS6KA3 KD1 KD2 (human); compound 1.0 µM) was 88%, the per cent of control (RPS6KA3 KD1 KD2 (human); compound 10.0 µM) was 87% and the per cent of control ([1]; compound 1.0 µM) was 85%. It also gave a per cent of control ([1]; compound 10.0 µM) of 77%, a per cent of control (SRC (human); compound 1.0 µM) of 90% and a per cent of control (SRC (human); compound 10.0 µM) of 67%. For the same molecule, the per cent of control (SYK (human); compound 1.0 µM) was 124%, the per cent of control (SYK (human); compound 10.0 µM) was 127% and the per cent of control (TBK1 (human); compound 1.0 µM) was 96%. The per cent of control (TBK1 (human); compound 10.0 µM) was 94%, the IC50 (PI4KA (human)) was > 3.33 µM and the IC50 (PI4KB (human)) was > 10 µM. The IC50 (PIK3C2A (human)) was > 10 µM, the IC50 (PIK3C2B (human)) was 5.15 µM and the IC50 (PIK3C3 (human)) was > 10 µM.
